Test results as given in PMC9151520 (Archives of Toxicology, 2022).
Where “and” joins values, the source holds several entries; their conditions need not be identical. Equal values may be shown once. Read-outs that look alike come from different tables or passages of the source.

Columns and labels:
[1] = tested on: p53 signaling (p53RE-bla HCT-116 cells); test: cells; format: cell-based
[2] = tested on: p53 signaling (p53RE-bla HCT-116 cells)
[3] = tested on: p53 signaling (p53RE-bla HCT-116 cells); remark: listed apart in the source
[4] = tested on: p53RE-bla HCT-116 cells
[5] = Homo sapiens, HCT-116, read-out: p53 activation EC50, primary screening
[6] = Homo sapiens, HCT-116, read-out: p53 activation efficacy, primary screening
[7] = read-out: p53 activation EC50, cherry pick confirmation
[8] = read-out: p53 activation EC50, primary screening
[9] = Homo sapiens, HCT-116, read-out: p53 activation EC50, cherry pick confirmation
[10] = Homo sapiens, HCT-116, read-out: p53 activation efficacy, cherry pick confirmation

N#Cc1c[nH]cc1-c1cccc2c1OC(F)(F)O2 [Fludioxonil]
p53 activation EC50, cherry pick confirmation [1]: inactive
p53 activation efficacy, cherry pick confirmation [1]: inactive
EC50 [1, 5]: 15.6 µM
Emax [1, 6]: 65.1%
p53 activation EC50, cherry pick confirmation [2]: inactive
p53 activation EC50, primary screening [2]: inactive
p53 activation efficacy, cherry pick confirmation [2]: inactive
p53 activation efficacy, primary screening [2]: inactive
p53 activation EC50, cherry pick confirmation [3]: inactive
p53 activation EC50, primary screening [3]: inactive
p53 activation efficacy, cherry pick confirmation [3]: inactive
p53 activation efficacy, primary screening [3]: inactive
Viability EC50, cherry pick confirmation [4]: inactive
Viability EC50, primary screening [4]: inactive
Viability efficacy, cherry pick confirmation [4]: inactive
Viability efficacy, primary screening [4]: inactive

C=C(CC)C(=O)c1ccc(OCC(=O)O)c(Cl)c1Cl [Ethacrynic acid]
p53 activation EC50, cherry pick confirmation [1]: inactive
p53 activation efficacy, cherry pick confirmation [1]: inactive
EC50 [1, 5]: 8.57 µM
Emax [1, 6]: 27.2%
p53 activation EC50, cherry pick confirmation [2]: inactive
p53 activation EC50, primary screening [2]: inactive
p53 activation efficacy, cherry pick confirmation [2]: inactive
p53 activation efficacy, primary screening [2]: inactive
p53 activation EC50, cherry pick confirmation [3]: inactive
p53 activation EC50, primary screening [3]: inactive
p53 activation efficacy, cherry pick confirmation [3]: inactive
p53 activation efficacy, primary screening [3]: inactive
Viability EC50, cherry pick confirmation [4]: inactive
Viability EC50, primary screening [4]: inactive
Viability efficacy, cherry pick confirmation [4]: inactive
Viability efficacy, primary screening [4]: inactive

Nc1ccc2cc3ccc(N)cc3nc2c1.Nc1ccc2cc3ccc(N)cc3nc2c1.O=S(=O)(O)O [Proflavin hemisulfate]
p53 activation efficacy, cherry pick confirmation [1]: 364.531
p53 activation efficacy, primary screening [1]: 180.344
EC50 [1, 7]: 5.5 µM
EC50 [1, 8]: 4.88 µM
p53 activation EC50, cherry pick confirmation [2]: inactive
p53 activation EC50, primary screening [2]: inactive
p53 activation efficacy, cherry pick confirmation [2]: inactive
p53 activation efficacy, primary screening [2]: inactive
p53 activation EC50, cherry pick confirmation [3]: inactive
p53 activation EC50, primary screening [3]: inactive
p53 activation efficacy, cherry pick confirmation [3]: inactive
p53 activation efficacy, primary screening [3]: inactive
Viability EC50, cherry pick confirmation [4]: inactive
Viability EC50, primary screening [4]: inactive
Viability efficacy, primary screening [4]: inactive
EC50 ([4]; read-out: Viability EC50, cherry pick confirmation): 17.8 µM

CCN(CC)CCNc1ccc(CO)c2sc3ccccc3c(=O)c12 [Hycanthone]
EC50 ([1]; Homo sapiens, HCT-116, read-out: EC50, p53 activation, cherry pick confirmation): 18.4 µM
Emax ([1]; Homo sapiens, HCT-116, read-out: Efficacy, p53 activation, cherry pick confirmation): 500%
EC50, p53 activation, cherry pick confirmation [2]: inactive
Efficacy, p53 activation, cherry pick confirmation [2]: inactive
EC50, p53 activation, cherry pick confirmation [3]: inactive
Efficacy, p53 activation, cherry pick confirmation [3]: inactive
EC50, viability, cherry pick confirmation [4]: inactive
EC50, viability, primary screening [4]: inactive
Efficacy, viability, cherry pick confirmation [4]: inactive
Efficacy, viability, primary screening [4]: inactive

CCOP(=O)(OCC)Oc1ccc([N+](=O)[O-])cc1 [Paraoxon]
p53 activation EC50, cherry pick confirmation [1]: inactive
p53 activation EC50, primary screening [1]: inactive
p53 activation efficacy, cherry pick confirmation [1]: inactive
p53 activation efficacy, primary screening [1]: inactive
p53 activation EC50, cherry pick confirmation [2]: inactive
p53 activation efficacy, cherry pick confirmation [2]: inactive
p53 activation EC50, cherry pick confirmation [3]: inactive
p53 activation efficacy, cherry pick confirmation [3]: inactive
Viability EC50, cherry pick confirmation [4]: inactive
Viability EC50, primary screening [4]: inactive
Viability efficacy, cherry pick confirmation [4]: inactive
Viability efficacy, primary screening [4]: inactive

CCC(C)(NC(=O)c1cc(Cl)c(C)c(Cl)c1)C(=O)CCl (stereo not shown) [Zoxamide]
EC50 [1, 9]: 22.3 µM
EC50 [1, 5]: 38 µM
Emax [1, 10]: 94.8%
Emax [1, 6]: 50.7%
p53 activation EC50, cherry pick confirmation [2]: inactive
p53 activation EC50, primary screening [2]: inactive
p53 activation efficacy, cherry pick confirmation [2]: inactive
p53 activation efficacy, primary screening [2]: inactive
p53 activation EC50, cherry pick confirmation [3]: inactive
p53 activation EC50, primary screening [3]: inactive
p53 activation efficacy, cherry pick confirmation [3]: inactive
p53 activation efficacy, primary screening [3]: inactive
Viability EC50, cherry pick confirmation [4]: inactive
Viability EC50, primary screening [4]: inactive
Viability efficacy, cherry pick confirmation [4]: inactive
Viability efficacy, primary screening [4]: inactive

Clc1ccc2cc3ccccc3cc2c1 [2-Chloroanthracene]
p53 activation Efficacy, No MS [1]: 70.691% and 61.8737%
EC50 ([1]; read-out: p53 activation EC50, No MS): 35.6 µM
p53 activation EC50, RLM [2]: inactive
EC50 ([2]; read-out: p53 activation EC50, RLM): 50.1 µM
p53 activation EC50, HLM [3]: inactive
EC50 ([3]; read-out: p53 activation EC50, HLM): 23.2 µM
Viability EC50, HLM [4]: inactive
Viability EC50, No MS [4]: inactive
Viability EC50, RLM [4]: inactive
Viability Efficacy, HLM [4]: inactive
Viability Efficacy, No MS [4]: inactive
Viability Efficacy, RLM [4]: inactive

CN1C(=O)N(c2ccccc2Br)Cc2cnc(Nc3ccc4c(c3)OCC(CO)O4)nc21 (stereo not shown) [PharmaGSID_48519]
p53 activation efficacy, cherry pick confirmation [1]: 31.694
p53 activation efficacy, primary screening [1]: 31.571
EC50 [1, 7]: 13.6 µM
EC50 [1, 8]: 9.59 µM
p53 activation EC50, cherry pick confirmation [2]: inactive
p53 activation EC50, primary screening [2]: inactive
p53 activation efficacy, cherry pick confirmation [2]: inactive
p53 activation efficacy, primary screening [2]: inactive
p53 activation EC50, cherry pick confirmation [3]: inactive
p53 activation EC50, primary screening [3]: inactive
p53 activation efficacy, cherry pick confirmation [3]: inactive
p53 activation efficacy, primary screening [3]: inactive
Viability EC50, cherry pick confirmation [4]: inactive
Viability EC50, primary screening [4]: inactive
Viability efficacy, cherry pick confirmation [4]: inactive
Viability efficacy, primary screening [4]: inactive

CCS(=O)(=O)CCSP(=O)(OC)OC [Demeton-S-methylsulphon]
p53 activation EC50 [1]: inactive
p53 activation efficacy [1]: inactive
EC50 [2]: 11.8 µM
p53 activation efficacy [2]: 41.936 and 34.343
p53 activation EC50 [3]: inactive
Viability EC50 [4]: inactive
Viability efficacy [4]: inactive

PharmaGSID_48505
p53 activation efficacy, cherry pick confirmation [1]: 67.8753
p53 activation efficacy, primary screening [1]: 66.729
EC50 [1, 7]: 2.82 µM
EC50 [1, 8]: 0.396 µM
p53 activation EC50, cherry pick confirmation [2]: inactive
p53 activation EC50, primary screening [2]: inactive
p53 activation efficacy, cherry pick confirmation [2]: inactive
p53 activation efficacy, primary screening [2]: inactive
p53 activation EC50, cherry pick confirmation [3]: inactive
p53 activation EC50, primary screening [3]: inactive
p53 activation efficacy, cherry pick confirmation [3]: inactive
p53 activation efficacy, primary screening [3]: inactive
Viability EC50, cherry pick confirmation [4]: inactive
Viability EC50, primary screening [4]: inactive
Viability efficacy, cherry pick confirmation [4]: inactive
Viability efficacy, primary screening [4]: inactive

NS(=O)(=O)O [Sulfamic acid]
p53 activation EC50, cherry pick confirmation [1]: inactive
p53 activation EC50, primary screening [1]: inactive
p53 activation efficacy, cherry pick confirmation [1]: inactive
p53 activation efficacy, primary screening [1]: inactive
p53 activation EC50, cherry pick confirmation [2]: inactive
p53 activation efficacy, cherry pick confirmation [2]: inactive
EC50 [2, 8]: 24.2 µM
p53 activation EC50, cherry pick confirmation [3]: inactive
p53 activation EC50, primary screening [3]: inactive
p53 activation efficacy, cherry pick confirmation [3]: inactive
Viability EC50, cherry pick confirmation [4]: inactive
Viability EC50, primary screening [4]: inactive
Viability efficacy, cherry pick confirmation [4]: inactive
Viability efficacy, primary screening [4]: inactive

CC1=C(C(=O)Nc2ccccc2)S(=O)(=O)CCO1 [Oxycarboxin]
EC50 [1, 9]: 36.4 µM
EC50 [1, 5]: 21.2 µM
Emax [1, 10]: 82.6%
Emax [1, 6]: 76%
p53 activation EC50, cherry pick confirmation [2]: inactive
p53 activation EC50, primary screening [2]: inactive
p53 activation efficacy, cherry pick confirmation [2]: inactive
p53 activation efficacy, primary screening [2]: inactive
p53 activation EC50, cherry pick confirmation [3]: inactive
p53 activation EC50, primary screening [3]: inactive
p53 activation efficacy, cherry pick confirmation [3]: inactive
p53 activation efficacy, primary screening [3]: inactive
Viability EC50, cherry pick confirmation [4]: inactive
Viability EC50, primary screening [4]: inactive
Viability efficacy, cherry pick confirmation [4]: inactive
Viability efficacy, primary screening [4]: inactive

O=C(O)c1c(O)c(-c2ccccc2)nc2ccccc12 [Oxycinchophen]
EC50 [1, 9]: 23.1 µM
EC50 [1, 5]: 16.6 µM
Emax [1, 10]: 87.1%
Emax [1, 6]: 60.5%
p53 activation EC50, cherry pick confirmation [2]: inactive
p53 activation EC50, primary screening [2]: inactive
p53 activation efficacy, cherry pick confirmation [2]: inactive
p53 activation efficacy, primary screening [2]: inactive
p53 activation EC50, cherry pick confirmation [3]: inactive
p53 activation EC50, primary screening [3]: inactive
p53 activation efficacy, cherry pick confirmation [3]: inactive
p53 activation efficacy, primary screening [3]: inactive
Viability EC50, cherry pick confirmation [4]: inactive
Viability EC50, primary screening [4]: inactive
Viability efficacy, cherry pick confirmation [4]: inactive
Viability efficacy, primary screening [4]: inactive

CCCCNC(=O)n1c(NC(=O)OC)nc2ccccc21 [Benomyl]
EC50 [1, 9]: 8.93 µM
EC50 [1, 5]: 11.4 µM
Emax [1, 10]: 38.5%
Emax [1, 6]: 88.9%
p53 activation EC50, cherry pick confirmation [2]: inactive
p53 activation EC50, primary screening [2]: inactive
p53 activation efficacy, cherry pick confirmation [2]: inactive
p53 activation efficacy, primary screening [2]: inactive
p53 activation EC50, cherry pick confirmation [3]: inactive
p53 activation EC50, primary screening [3]: inactive
p53 activation efficacy, cherry pick confirmation [3]: inactive
p53 activation efficacy, primary screening [3]: inactive
Viability EC50, cherry pick confirmation [4]: inactive
Viability EC50, primary screening [4]: inactive
Viability efficacy, cherry pick confirmation [4]: inactive
Viability efficacy, primary screening [4]: inactive
